Results from ChEMBL document CHEMBL4665827, “Discovery of Small-Molecule Inhibitors of Receptor Activator of Nuclear Factor-κB Ligand with a Superior Therapeutic Index” (J Med Chem, 2020).
The source made the active and inactive calls. No cut-off for these calls is given here.

Legend:
[1] = biological target: T1, Tumor necrosis factor ligand superfamily member 11 (Homo sapiens) (UniProt O14788); experiment: Inhibition of human soluble RANKL trimerization assessed as increase in RANKL monomer level preincubated for 1 hr followed by DSS addition and measured after 1 hr by SDS-PAGE analysis; settings: time 2.0 hrs
T1 sequence (whole entry): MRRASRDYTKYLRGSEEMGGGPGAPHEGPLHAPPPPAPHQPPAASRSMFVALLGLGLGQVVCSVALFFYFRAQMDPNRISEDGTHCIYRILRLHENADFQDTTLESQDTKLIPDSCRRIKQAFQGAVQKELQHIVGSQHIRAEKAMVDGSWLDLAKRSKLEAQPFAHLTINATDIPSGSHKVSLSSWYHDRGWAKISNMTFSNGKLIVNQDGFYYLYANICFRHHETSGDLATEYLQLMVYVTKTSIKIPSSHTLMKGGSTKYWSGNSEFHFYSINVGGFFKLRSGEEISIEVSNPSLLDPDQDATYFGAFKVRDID

[2] = biological target: T1, Tumor necrosis factor ligand superfamily member 11 (Homo sapiens); experiment: Inhibition of human RANKL-induced osteoclastogenesis in RANKL cultured mouse bone marrow cells assessed as reduction in RANKL/M-CSF-induced TRAP activity at 5 uM preincubated with RANKL for 1 hr followed by cell addition and subsequent media replenishment every 48 hrs for 4 days; format: cell-based; settings: time 4.0 day
[3] = Effect on osteoblast differentiation in mouse MC3T3-E1 cells assessed as change in ALP activity at 2 to 10 uM with media replenishment every 3 days for 14 days; format: ADME, cell-based; settings: mc3t3-e1, 336 h, dose 2-10 µM, time 14 day
[4] = biological target: T1, Tumor necrosis factor ligand superfamily member 11 (Homo sapiens); experiment: Potency index, ratio of SPD-304 Kd to test compound Kd for binding affinity to GST-fused human RANKL extracellular domain (Lys159 to Asp317 residues) expressed in Escherichia coli BL21(DE3) pLysS by fluorescence spectrophotometric assay
[5] = biological target: T2, Tumor necrosis factor ligand superfamily member 11 (Homo sapiens, UniProt O14788); experiment: Binding affinity to GST-fused human RANKL extracellular domain (Lys159 to Asp317 residues) expressed in Escherichia coli BL21(DE3) pLysS by fluorescence spectrophotometric assay; settings: read-out: Kd
T2 sequence (O14788 whole entry): T1 sequence (whole entry)

[6] = biological target: T1, Tumor necrosis factor ligand superfamily member 11 (Homo sapiens); experiment: Inhibition of human RANKL-induced osteoclastogenesis in RANKL cultured mouse bone marrow cells assessed as reduction in RANKL/M-CSF-induced TRAP activity preincubated with RANKL for 1 hr followed by cell addition and subsequent media replenishment every 48 hrs for 4 days; format: cell-based; settings: time 4.0 day
[7] = biological target: T1, Tumor necrosis factor ligand superfamily member 11 (Homo sapiens); experiment: (§1) Inhibition of human RANKL-induced osteoclastogenesis in RANKL cultured mouse bone marrow cells assessed as reduction in phalloidin-labeled actin ring formation at 5 to 10 uM preincubated with RANKL for 1 hr followed by cell addition and subsequent media replenishment every 48 hrs for 4 days by Alexa Fluor 488-conjugated phalloidin/DAPI-staining based fluorescence microscopic analysis; settings: dose microM 5-10, time 4.0 day
[8] = Therapeutic index, ratio of LC50 for mouse bone marrow cells to IC50 for Inhibition of human RANKL-induced osteoclastogenesis in RANKL cultured mouse bone marrow cells; format: toxicity; settings: read-out: Ratio LC50/IC50
[9] = Cytotoxicity against mouse BMMC assessed as reduction in cell viability measured after 48 hrs by MTT assay; format: cell-based; settings: mouse BMMC (bone marrow cells), read-out: LC50
[10] = biological target: T1, Tumor necrosis factor ligand superfamily member 11 (Homo sapiens); experiment: Inhibition of human RANKL-induced osteoclastogenesis in RANKL cultured mouse bone marrow cells assessed as reduction in RANKL/M-CSF-induced TRAP activity at 5 to 10 uM preincubated with RANKL for 1 hr followed by cell addition and subsequent media replenishment every 48 hrs for 4 days; format: cell-based; settings: dose microM 5-10, time 4.0 day
[11] = biological target: T1, Tumor necrosis factor ligand superfamily member 11 (Homo sapiens); experiment: (§2) Inhibition of RANKL (unknown origin) in RANKL cultured mouse RAW264.7 cells assessed as reduction in RANKL/RANK-interaction mediated NFATc1 expression by measuring NFATc1 protein expression at 5 uM preincubated for 1 hr followed by cell culture addition and measured after 2 days by Western blot analysis relative to positive control (reference value: 1); format: cell-based; settings: time 49.0 hrs
[12] = biological target: T1, Tumor necrosis factor ligand superfamily member 11 (Homo sapiens); experiment: as §2, with “cFOS” for “NFATc1”; format: cell-based; settings: time 49.0 hrs
[13] = biological target: T1, Tumor necrosis factor ligand superfamily member 11 (Homo sapiens); experiment: Inhibition of human soluble RANKL trimerization assessed as increase in RANKL monomer level at 1:3 ratio of DSS to RANKL preincubated for 1 hr followed by DSS addition and measured after 1 hr by SDS-PAGE analysis; settings: time 2.0 hrs
[14] = biological target: T1, Tumor necrosis factor ligand superfamily member 11 (Homo sapiens); experiment: as §2, with “2” for “5”; format: cell-based; settings: time 49.0 hrs
[15] = biological target: T1, Tumor necrosis factor ligand superfamily member 11 (Homo sapiens); experiment: as §2, with “cFOS” for “NFATc1”, “10” for “5”; format: cell-based; settings: time 49.0 hrs
[16] = biological target: T1, Tumor necrosis factor ligand superfamily member 11 (Homo sapiens); experiment: as §2, with “cFOS” for “NFATc1”, “2” for “5”; format: cell-based; settings: time 49.0 hrs
[17] = biological target: T1, Tumor necrosis factor ligand superfamily member 11 (Homo sapiens); experiment: as §2, with “10” for “5”; format: cell-based; settings: time 49.0 hrs
[18] = biological target: T1, Tumor necrosis factor ligand superfamily member 11 (Homo sapiens); experiment: as §1, with “formation” for “formation at 5 to 10 uM”
[19] = biological target: T1, Tumor necrosis factor ligand superfamily member 11 (Homo sapiens); experiment: Inhibition of RANKL (unknown origin) in RANKL cultured mouse RAW264.7 cells assessed as reduction in RANKL/RANK-interaction mediated NFATc1 expression at 2 to 10 uM preincubated for 1 hr followed by cell culture addition and measured after 2 days by Western blot analysis; format: cell-based; settings: dose microM 2-10, time 49.0 hrs
[20] = biological target: T1, Tumor necrosis factor ligand superfamily member 11 (Homo sapiens); experiment: Inhibition of RANKL (unknown origin) in RANKL cultured mouse RAW264.7 cells assessed as reduction in RANKL/RANK-interaction mediated cFOS expression at 2 to 10 uM preincubated for 1 hr followed by cell culture addition and measured after 2 days by Western blot analysis; format: cell-based; settings: dose microM 2-10, time 49.0 hrs
[21] = biological target: T1, Tumor necrosis factor ligand superfamily member 11 (Homo sapiens); experiment: Inhibition of human soluble RANKL trimerization assessed as increase in RANKL monomer level at 1:3 to 1:10 ratio of DSS to RANKL preincubated for 1 hr followed by DSS addition and measured after 1 hr by SDS-PAGE analysis; settings: time 2.0 hrs
[22] = test system: BMMC; experiment: Cytotoxicity against mouse BMMC assessed as reduction in cell viability at 5 uM measured after 48 hrs by MTT assay; format: cell-based

Structure (SMILES)	inhibition [2]	Activity [3]	Ratio [4]	Kd [5]	inhibition [6]	selectivity ratio [8]	CC50 at 48 h [9]	further results
CN(CCN(C)Cc1cn(S(=O)(=O)c2ccccc2)c2ccccc12)Cc1coc2ccccc2c1=O	100%	Non-Toxic	2.7	5.24 µM	Dose-dependent effect	23.4	58.5 µM	inhibition [1]: Dose-dependent effect; inhibition [7]: Active; inhibition [10]: Active
CN(CCN(C)C(=O)c1cn(-c2cccc([N+](=O)[O-])c2)c2ccccc12)C(=O)c1coc2ccccc2c1=O	100%	Non-Toxic		2.18 µM	Dose-dependent effect	27.8	44.2 µM	fold change (FC) [11]: 0.52; fold change (FC) [12]: 0.56; inhibition [13]: Active; fold change (FC) [14]: 0.66; fold change (FC) [15]: 0.48; fold change (FC) [16]: 0.58; fold change (FC) [17]: 0.39; inhibition [18]: Dose-dependent effect
CN(CCN(C)C(=O)c1cn(S(=O)(=O)c2ccccc2)c2ccccc12)C(=O)c1coc2ccccc2c1=O	100%	Non-Toxic	3	4.6 µM	Dose-dependent effect	21.8	62.3 µM	inhibition [19]: Active; inhibition [20]: Active
Cc1cc2occ(CN(C)CCN(C)Cc3cn(-c4cccc(C(F)(F)F)c4)c4ccccc34)c(=O)c2cc1C					Dose-dependent effect	3.2	3.2 µM	inhibition [21]: Active; Activity [22]: Toxic
